This passage reports IC50, Activity and inhibition results from ChEMBL document CHEMBL4825734, “Synthesis, activity and mechanism for double-ring conjugated enones” (Bioorg Med Chem Lett, 2021).

As usually defined, the IC50 is the point on the concentration scale where inhibition reaches its midpoint. Low values mean greater potency in that assay, high ones weaker potency in that assay.

One assay concerns the target Toll-like receptor 4 (Homo sapiens, UniProt O00206). The experiment in a line: Inhibition of TLR4 (unknown origin) by sandwich ELISA method. A general note: In an ELISA, binding on a coated surface is turned into a signal by an enzyme label.
Assay [1] deals with Synovial cell. The experiment in a line: Induction of apoptosis in rat synovial cells assessed as increase in caspase-3 expression at 1 uM in presence of LPS by DAPI staining based immunofluorescence microscopic analysis. The assay is classed as functional.
For assay [2], the system named is Synovial cell. The experiment in a line: Induction of apoptosis in rat synovial cells assessed as green coloured positive apoptotic cells with nuclear pyknosis and chromatin condensation at 1 uM in presence of LPS by TUNEL staining based microscopic analysis. The assay is classed as functional.
Assay [3] deals with Synovial cell. Description: Antiinflammatory activity in rat synovial cells assessed as downregulation of LPS-induced TNF-alpha production at 1 uM measured by ELISA. The assay is classed as functional, cell-based.
The subject of assay [4] is Synovial cell. The experiment in a line: Antiinflammatory activity in rat synovial cells assessed as downregulation of LPS-induced IL-1 beta production at 1 uM measured by ELISA. The assay is classed as functional, cell-based.
The test system of assay [5] is Synovial cell. The experiment in a line: Antiinflammatory activity in rat synovial cells assessed as downregulation of LPS-induced IL-6 production at 1 uM measured by ELISA. The assay is classed as functional, cell-based.
For assay [6], the system named is Synovial cell. Description: Antiinflammatory activity in rat synovial cells assessed as decrease in LPS-induced TLR4 protein expression at 1 uM by DAPI staining based immunofluorescence microscopic analysis. The class given is functional.
The subject of assay [7] is Synovial cell. The experiment in a line: Antiinflammatory activity in rat synovial cells assessed as decrease in LPS-induced MyD88 protein expression at 1 uM by DAPI staining based immunofluorescence microscopic analysis. The class given is functional.
The test system of assay [8] is Synovial cell. Description: Antiinflammatory activity in rat synovial cells assessed as decrease in LPS-induced NF-kappaB protein expression at 1 uM by DAPI staining based immunofluorescence microscopic analysis. The assay is classed as functional.
Assay [9] deals with Synovial cell. The experiment in a line: Antiinflammatory activity in LPS-stimulated rat synovial cells assessed as increase in IkappaB protein expression at 1 uM by DAPI staining based immunofluorescence microscopic analysis. The assay is classed as functional.
Assay [10] relates to Synovial cell. The experiment in a line: Inhibition of LPS-induced abnormal proliferation in rat synovial cells assessed as reduction in cell number at 1 uM. The assay is classed as functional, cell-based.
The subject of assay [11] is Synovial cell. The experiment in a line: Inhibition of LPS-induced cytomorphological changes in rat synovial cells assessed as reduction in refractive ability with irregular spindle or round shaped cell body at 1 uM. The class given is functional, cell-based.

Structures are written as SMILES. The source made the active and inactive calls. The calls are words filed in the database; no cut-off is given here.

Toll-like receptor 4, sequence (O00206 whole entry): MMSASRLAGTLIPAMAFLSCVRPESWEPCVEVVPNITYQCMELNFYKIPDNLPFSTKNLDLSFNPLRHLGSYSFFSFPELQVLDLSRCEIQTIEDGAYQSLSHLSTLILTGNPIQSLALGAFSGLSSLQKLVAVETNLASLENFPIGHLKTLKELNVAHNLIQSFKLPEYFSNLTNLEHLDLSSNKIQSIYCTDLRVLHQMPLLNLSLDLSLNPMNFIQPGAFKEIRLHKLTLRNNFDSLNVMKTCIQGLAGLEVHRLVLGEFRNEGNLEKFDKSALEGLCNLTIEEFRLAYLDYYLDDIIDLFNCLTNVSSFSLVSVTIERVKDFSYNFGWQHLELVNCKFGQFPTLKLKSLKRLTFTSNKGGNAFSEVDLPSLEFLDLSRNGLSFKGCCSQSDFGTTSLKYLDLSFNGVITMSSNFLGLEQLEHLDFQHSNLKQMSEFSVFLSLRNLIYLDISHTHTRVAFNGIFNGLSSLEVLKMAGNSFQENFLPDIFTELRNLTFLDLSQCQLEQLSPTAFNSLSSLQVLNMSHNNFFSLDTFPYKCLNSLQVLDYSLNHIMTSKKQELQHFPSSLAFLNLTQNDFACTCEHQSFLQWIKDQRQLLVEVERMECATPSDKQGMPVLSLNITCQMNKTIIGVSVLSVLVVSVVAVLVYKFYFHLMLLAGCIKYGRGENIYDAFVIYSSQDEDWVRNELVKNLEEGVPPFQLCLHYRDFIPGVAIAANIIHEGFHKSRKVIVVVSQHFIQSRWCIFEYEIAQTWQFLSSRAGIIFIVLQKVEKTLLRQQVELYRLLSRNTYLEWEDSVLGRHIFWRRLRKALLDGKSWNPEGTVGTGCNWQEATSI

Regarding `CCCC1CCC([C@@H]2CCC3=CC(=O)CC(=O)C3C2)CC1` (stereo partly specified), at Toll-like receptor 4, the IC50 was 730 nM.

For the compound `O=C1C=C2C(CC[C@@H]2Cl)C(=O)C1` (stereo partly specified), the IC50 against Toll-like receptor 4 came to 2710 nM.

In turn, `CC(C)[C@H]1CCC2C(=O)CCC(=O)C=C21` (stereo partly specified) showed an IC50 at Toll-like receptor 4 of 2820 nM.

The compound `C[C@H]1CCC2C(=O)CCC(=O)C=C2C1` (stereo partly specified) showed an IC50 on Toll-like receptor 4 of 2660 nM.

For the compound `CC(C)[C@H]1CCC2C(=O)CC(=O)C=C21` (stereo partly specified), on Toll-like receptor 4, inhibition was half-maximal at 2530 nM (IC50).

`O=C1C=C2CC[C@@H](NC(=O)OCc3ccccc3)CC2C(=O)C1` (stereo partly specified): half-maximal inhibition against Toll-like receptor 4 (IC50) was put at 560 nM. Further, the result in the assay on Synovial cell [1], in the assay on Synovial cell [2], with Synovial cell [3], in the assay with Synovial cell [4], in the assay on Synovial cell [5] and with Synovial cell [6] was Active. The outcome in the assay with Synovial cell [7], in the assay on Synovial cell [8] and in the assay on Synovial cell [9] was Active. Besides, the inhibition result with Synovial cell [10] and in the assay with Synovial cell [11] was “Active” each time.

For `O=C1C=C2CCCCC2C(=O)CC1` (stereo unspecified), the midpoint of inhibition at Toll-like receptor 4, the IC50, lay at 1850 nM.

In turn, `CN(Cc1cnc2nc(N)nc(N)c2n1)c1ccc(C(=O)N[C@@H](CCC(=O)O)C(=O)O)cc1` [METHOTREXATE] came in with an IC50 at Toll-like receptor 4 of 1040 nM. In addition, the result in the assay on Synovial cell [1], in the assay with Synovial cell [2], in the assay with Synovial cell [3], in the assay with Synovial cell [4], with Synovial cell [5] and in the assay on Synovial cell [6] was Active. In addition, the result in the assay on Synovial cell [7], with Synovial cell [8] and in the assay with Synovial cell [9] was Active. The inhibition entry in the assay on Synovial cell [10] and in the assay with Synovial cell [11] was “Active” each time.

On to `CCOC(=O)[C@H]1CCCC2C(=O)CC(=O)C=C21` (stereo partly specified), for which, at Toll-like receptor 4, the IC50 came out at 1540 nM.
